In ChEMBL document CHEMBL3044734, “Major secondary metabolites produced by two commercial Trichoderma strains active against different phytopathogens” (2006):

Tests used:
Format in all cases: functional
Rhizoctonia solani [1] = assay: Antimicrobial activity against Rhizoctonia solani assessed as colony diameter at 0.1 ug/plug after 3 days ( Rvb = 2.95 +/- 0.11 cm)
Globisporangium ultimum [2] = assay: Antimicrobial activity against Pythium ultimum assessed as colony diameter at 10 ug/plug after 3 days ( Rvb = 8.50 cm)
Rhizoctonia solani [3] = assay: Antimicrobial activity against Rhizoctonia solani assessed as colony diameter at 0.01 ug/plug after 3 days ( Rvb = 2.95 +/- 0.11 cm)
Gaeumannomyces tritici [4] = assay: Antimicrobial activity against Gaeumannomyces graminis var. tritici assessed as colony diameter at 200 ug/plug after 3 days ( Rvb = 1.40+/- 0.8 cm)
Rhizoctonia solani [5] = assay: Antimicrobial activity against Rhizoctonia solani assessed as colony diameter at 200 ug/plug after 3 days ( Rvb = 2.95 +/- 0.11 cm)
Globisporangium ultimum [6] = assay: Antimicrobial activity against Pythium ultimum assessed as colony diameter at 0.1 ug/plug after 3 days ( Rvb = 8.50 cm)
Gaeumannomyces tritici [7] = assay: Antimicrobial activity against Gaeumannomyces graminis var. tritici assessed as colony diameter at 0.1 ug/plug after 3 days ( Rvb = 1.40+/- 0.8 cm)
Rhizoctonia solani [8] = assay: Antimicrobial activity against Rhizoctonia solani assessed as colony diameter at 10 ug/plug after 3 days ( Rvb = 2.95 +/- 0.11 cm)
Gaeumannomyces tritici [9] = assay: Antimicrobial activity against Gaeumannomyces graminis var. tritici assessed as colony diameter at 10 ug/plug after 3 days ( Rvb = 1.40+/- 0.8 cm)
Globisporangium ultimum [10] = assay: Antimicrobial activity against Pythium ultimum assessed as colony diameter at 0.01 ug/plug after 3 days ( Rvb = 8.50 cm)
Gaeumannomyces tritici [11] = assay: Antimicrobial activity against Gaeumannomyces graminis var. tritici assessed as colony diameter at 100 ug/plug after 3 days ( Rvb = 1.40+/- 0.8 cm)
Globisporangium ultimum [12] = assay: Antimicrobial activity against Pythium ultimum assessed as colony diameter at 1 ug/plug after 3 days ( Rvb = 8.50 cm)
Gaeumannomyces tritici [13] = assay: Antimicrobial activity against Gaeumannomyces graminis var. tritici assessed as colony diameter at 0.01 ug/plug after 3 days ( Rvb = 1.40+/- 0.8 cm)
Gaeumannomyces tritici [14] = assay: Antimicrobial activity against Gaeumannomyces graminis var. tritici assessed as colony diameter at 1 ug/plug after 3 days ( Rvb = 1.40+/- 0.8 cm)
Rhizoctonia solani [15] = assay: Antimicrobial activity against Rhizoctonia solani assessed as colony diameter at 1 ug/plug after 3 days ( Rvb = 2.95 +/- 0.11 cm)
Globisporangium ultimum [16] = assay: Antimicrobial activity against Pythium ultimum assessed as colony diameter at 100 ug/plug after 3 days ( Rvb = 8.50 cm)
Globisporangium ultimum [17] = assay: Antimicrobial activity against Pythium ultimum assessed as colony diameter at 200 ug/plug after 3 days ( Rvb = 8.50 cm)
Rhizoctonia solani [18] = assay: Antimicrobial activity against Rhizoctonia solani assessed as colony diameter at 100 ug/plug after 3 days ( Rvb = 2.95 +/- 0.11 cm)

Compound	Activity (Rhizoctonia solani [1]) [cm]	Activity (Globisporangium ultimum [2]) [cm]	Activity (Rhizoctonia solani [3]) [cm]	Activity (Gaeumannomyces tritici [4]) [cm]	Activity (Rhizoctonia solani [5]) [cm]	Activity (Globisporangium ultimum [6]) [cm]	Activity (Gaeumannomyces tritici [7]) [cm]	Activity (Rhizoctonia solani [8]) [cm]	Activity (Gaeumannomyces tritici [9]) [cm]	Activity (Globisporangium ultimum [10]) [cm]	Activity (Gaeumannomyces tritici [11]) [cm]	Activity (Globisporangium ultimum [12]) [cm]	Activity (Gaeumannomyces tritici [13]) [cm]	Activity (Gaeumannomyces tritici [14]) [cm]	Activity (Rhizoctonia solani [15]) [cm]	Activity (Globisporangium ultimum [16]) [cm]	Activity (Globisporangium ultimum [17]) [cm]	Activity (Rhizoctonia solani [18]) [cm]
C/C=C/C=C/CC1=C(CC(C)O)C(=O)OC1 (stereo unspecified) [HARZIANOLIDE]	2.83	8.5	2.8	0.7	2.35	8.5	1.25	3.05	1.1	8.5	1.25	8.5	1.05	1.43	2.5	8.5	7.6	2.7
C/C=C/CC(C)C(=O)c1c(O)c(OC)c(OC)[nH]c1=O (stereo unspecified) [HARZIANOPYRIDONE]	2.53	8.5	2.73			8.5	0.7	0	0	8.5	0	8.5	0.98	0	1.2	7.9		0
C/C=C/C=C/C1=CC2=CC(=O)[C@](C)(OC(=O)[C@H](C)O)C(=O)C2=CO1 [T22AZAPHILONE]	2.83	5.2	2.9			8.5	1.13	0	0	8.5	0	8.3	1.18	0	1.9	0		0
C/C=C/C=C/CC1=C(CC(C)=O)C(=O)OC1 [T39BUTENOLIDE]	2.5	8.5	2.73	0	0	8.5	1.13	2.13	1.23	8.5	0	8.5	1.2	1.1	2.4	8.05	6.35	0
